From patent US20080119510A1, “Substituted Imidazo [4,5-B] Pyridines As Inhibitors Of Gastric Acid Secretion” (Altana Pharma AG, priority 2004, published 2008)

Experiments:
[1] = tested on: pentagastrin-stimulated acid secretion of the perfused rat stomach; assay: Secretion-inhibiting action on the perfused rat stomach (pentagastrin-stimulated acid secretion); assay type: in vivo; details: anesthetized CD rat, dose 3.0 μmol/kg i.d.
Source text: In Table A which follows, the influence of the compounds of the formula 1 according to the invention on the pentagastrin-stimulated acid secretion of the perfused rat stomach after intraduodenal administration in vivo is shown.
The abdomen of anesthetized rats (CD rat, female, 200-250 g; 1.5 g/kg i.m. urethane) was opened after tracheotomy by a median upper abdominal incision and a PVC catheter was fixed transorally in the esophagus and another via the pylorus such that the ends of the tubes just projected into the gastric lumen. The catheter leading from the pylorus led outward into the right abdominal wall through a side opening.
After thorough rinsing (about 50-100 ml), warm (37° C.) physiological NaCl solution was continuously passed through the stomach (0.5 ml/min, pH 6.8-6.9; Braun-Unita I). The pH (pH meter 632, glass electrode EA 147; φ=5 mm, Metrohm) and, by titration with a freshly prepared 0.01 N NaOH solution to pH 7 (Dosimat 665 Metrohm), the secreted HCl were determined in the effluent in each case collected at an interval of 15 minutes.
The gastric secretion was stimulated by continuous infusion of […] (=1.65 ml/h) of i.v. pentagastrin (left femoral vein) about 30 min after the end of the operation (i.e. after determination of 2 preliminary fractions). The substances to be tested were administered intraduodenally in a 2.5 ml/kg liquid volume 60 min after the start of the continuous pentagastrin infusion. The body temperature of the animals was kept at a constant 37.8-38° C. by infrared irradiation and heat pads (automatic, stepless control by means of a rectal temperature sensor).

| melting point [°C] | SMILES | Inhibition of acid secretion (%) [1] [%] |
| --- | --- | --- |
| – | CCc1cccc(C)c1CNc1cc(OC)nc2c1nc(C)n2C [Example 6, 7-(2-Ethyl-6-methylbenzyl)amino-5-methoxy-2,3-dimethyl-3H-imidazo[4,5-b]pyridine] | >30 |
| – | CCc1cccc(C)c1CNc1cc(C(N)=O)nc2c1nc(C)n2C [Example 3, 5-(Aminocarbonyl)-7-(2-ethyl-6-methylbenzyl)amino-2,3-dimethyl-3H-imidazo[4,5-b]pyridine] | >30 |
| – | CCc1cccc(C)c1CNc1cc(C(=O)N(C)C)nc2c1nc(C)n2C [Example 2, 5-(Dimethylaminocarbonyl)-7-(2-ethyl-6-methylbenzyl)amino-2,3-dimethyl-3H-imidazo[4,5-b]pyridine] | >30 |
| 235 to 238 | CCc1cccc(C)c1CNc1cc(C(=O)O)nc2c1nc(C)n2C [Example 10, 7-(2-ethyl-6-methylbenzyl)amino-2,3-dimethyl-3H-imidazo[4,5-b]pyridine-5-carboxylic Acid] | – |
| 105 to 109 | CCc1cccc(C)c1CNc1ccnc2c1nc(C)n2C [Example 1, 7-(2-Ethyl-6-methylbenzyl)amino-2,3-dimethyl-3H-imidazo[4,5-b]pyridine] | >30 |
| – | CCc1cccc(C)c1CNc1cc(C(=O)NCCO)nc2c1nc(C)n2C [Example 5, 7-(2-Ethyl-6-methylbenzyl)amino-5-(2-hydroxyethylaminocarbonyl)-2,3-dimethyl-3H-imidazo[4,5-b]pyridine] | >30 |
